# Literature values as cited in patent US20090142410A1, “Nutritional composition and method for increasing creatine uptake and retention in skeletal muscle, increasing muscle mass and strength, increasing exercise capacity and for aiding recovery following exercise” (priority 2006, published 2009).
# Settings: concomitant ingestion with carbohydrates
smiles,measurement,value
"CN(CC(=O)O)C(=N)N [Creatine, N-methyl-N-guanyl Glycine]",improvement of Creatine retention,up to 60%
